Measurements taken from PubChem BioAssay (NCI).
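The compound was tested at five concentrations on cells cultured in 96-well plates, with a 48-hour exposure period. TGI is the concentration that stops growth completely.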

How the values were obtained:
Assay in all cases: NCI tumour cell line growth inhibition, 48 h
[1] = test system: 786-0 renal
[2] = test system: A498 renal
[3] = test system: A549 NSCLC
[4] = test system: ACHN renal
[5] = test system: CAKI-1 renal
[6] = test system: COLO 205 colon
[7] = test system: DU-145 prostate
[8] = test system: EKVX NSCLC
[9] = test system: HCC-2998 colon
[10] = test system: HCT-116 colon
[11] = test system: HCT-15 colon
[12] = test system: HL-60(TB) leukemia
[13] = test system: HOP-62 NSCLC
[14] = test system: HOP-92 NSCLC
[15] = test system: HS 578T breast
[16] = test system: HT29 colon
[17] = test system: IGROV1 ovarian
[18] = test system: K-562 leukemia
[19] = test system: KM12 colon
[20] = test system: LOX IMVI melanoma
[21] = test system: M14 melanoma
[22] = test system: MALME-3M melanoma
[23] = test system: MCF7 breast
[24] = test system: MDA-MB-231 breast
[25] = test system: MDA-MB-435
[26] = test system: MDA-N
[27] = test system: MOLT-4 leukemia
[28] = test system: NCI-H226 lung
[29] = test system: NCI-H23 lung
[30] = test system: NCI-H460 lung
[31] = test system: NCI/ADR-RES ovarian
[32] = test system: OVCAR-3 ovarian
[33] = test system: OVCAR-4 ovarian
[34] = test system: OVCAR-5 ovarian
[35] = test system: OVCAR-8 ovarian
[36] = test system: PC-3 prostate
[37] = test system: RPMI-8226 leukemia
[38] = test system: RXF 393 renal
[39] = test system: SF-268 CNS
[40] = test system: SF-295 CNS
[41] = test system: SF-539 CNS
[42] = test system: SK-MEL-2 melanoma
[43] = test system: SK-MEL-28 melanoma
[44] = test system: SK-OV-3 ovarian
[45] = test system: SN12C renal
[46] = test system: SNB-19 CNS
[47] = test system: SNB-75 CNS
[48] = test system: SR leukemia
[49] = test system: SW-620 colon
[50] = test system: T-47D breast
[51] = test system: TK-10 renal
[52] = test system: U251 CNS
[53] = test system: UACC-257 melanoma
[54] = test system: UACC-62 melanoma
[55] = test system: UO-31 renal
[56] = test system: BT-549 breast
[57] = test system: CCRF-CEM leukemia
[58] = test system: NCI-H522 lung
[59] = test system: SK-MEL-5 melanoma

Structure (SMILES): CO/N=C\c1ccc2c(c1)Sc1ccccc1O2
- TGI [1]: > 100 µM
- TGI [2]: > 100 µM
- TGI [3]: > 100 µM
- TGI [4]: > 100 µM
- TGI [5]: > 100 µM
- TGI [6]: > 100 µM
- TGI [7]: > 100 µM
- TGI [8]: > 100 µM
- TGI [9]: > 100 µM
- TGI [10]: > 100 µM
- TGI [11]: > 100 µM
- TGI [12]: > 100 µM
- TGI [13]: > 100 µM
- TGI [14]: > 100 µM
- TGI [15]: 97.3 µM
- TGI [16]: > 100 µM
- TGI [17]: > 100 µM
- TGI [18]: > 100 µM
- TGI [19]: > 100 µM
- TGI [20]: > 100 µM
- TGI [21]: > 100 µM
- TGI [22]: > 100 µM
- TGI [23]: > 100 µM
- TGI [24]: > 100 µM
- TGI [25]: > 100 µM
- TGI [26]: > 100 µM
- TGI [27]: > 100 µM
- TGI [28]: > 100 µM
- TGI [29]: > 100 µM
- TGI [30]: > 100 µM
- TGI [31]: > 100 µM
- TGI [32]: > 100 µM
- TGI [33]: > 100 µM
- TGI [34]: > 100 µM
- TGI [35]: > 100 µM
- TGI [36]: > 100 µM
- TGI [37]: > 100 µM
- TGI [38]: > 100 µM
- TGI [39]: > 100 µM
- TGI [40]: > 100 µM
- TGI [41]: > 100 µM
- TGI [42]: > 100 µM
- TGI [43]: > 100 µM
- TGI [44]: > 100 µM
- TGI [45]: > 100 µM
- TGI [46]: > 100 µM
- TGI [47]: > 100 µM
- TGI [48]: > 100 µM
- TGI [49]: > 100 µM
- TGI [50]: > 100 µM
- TGI [51]: > 100 µM
- TGI [52]: > 100 µM
- TGI [53]: > 100 µM
- TGI [54]: > 100 µM
- TGI [55]: > 100 µM

Structure (SMILES): O=C(N=Nc1ccc(Cl)cc1Cl)NNc1ccc(Cl)cc1Cl
- TGI [1]: 32.6 µM
- TGI [2]: 33.1 µM
- TGI [3]: 46.7 µM
- TGI [4]: 42.5 µM
- TGI [56]: 39.7 µM
- TGI [5]: 52.9 µM
- TGI [57]: 59.6 µM
- TGI [7]: 33.3 µM
- TGI [9]: 23.9 µM
- TGI [10]: 28.7 µM
- TGI [11]: 46.8 µM
- TGI [12]: 49.8 µM
- TGI [13]: 18.6 µM
- TGI [16]: 75.3 µM
- TGI [17]: 61.4 µM
- TGI [18]: 72.6 µM
- TGI [20]: 30.4 µM
- TGI [22]: 36.6 µM
- TGI [24]: 57.8 µM
- TGI [25]: 51.3 µM
- TGI [26]: 35.1 µM
- TGI [27]: 50.5 µM
- TGI [28]: 48.2 µM
- TGI [29]: 53 µM
- TGI [30]: 33.4 µM
- TGI [58]: 41.9 µM
- TGI [32]: 33.6 µM
- TGI [33]: 38 µM
- TGI [34]: 44 µM
- TGI [35]: 37.6 µM
- TGI [36]: 34.8 µM
- TGI [37]: 61.9 µM
- TGI [39]: 97.5 µM
- TGI [42]: 27 µM
- TGI [43]: 53.9 µM
- TGI [59]: 29.2 µM
- TGI [45]: 37.4 µM
- TGI [46]: > 100 µM
- TGI [47]: > 100 µM
- TGI [48]: 78.3 µM
- TGI [49]: 45.8 µM
- TGI [50]: 77.3 µM
- TGI [51]: 55.5 µM
- TGI [52]: 36.2 µM
- TGI [53]: 43.1 µM
- TGI [54]: 29 µM
- TGI [55]: 37.5 µM

Structure (SMILES): Nc1ccccc1C#CC(=O)c1cccc(C(F)(F)F)c1
- TGI [1]: 4.68 µM
- TGI [2]: 32.5 µM
- TGI [3]: 33.6 µM
- TGI [5]: 13.5 µM
- TGI [57]: 4.42 µM
- TGI [6]: 3.87 µM
- TGI [7]: 37.1 µM
- TGI [8]: 38 µM
- TGI [10]: > 100 µM
- TGI [12]: 41.1 µM
- TGI [13]: 27.9 µM
- TGI [14]: 4.84 µM
- TGI [15]: 6.47 µM
- TGI [16]: 19.2 µM
- TGI [17]: 1.99 µM
- TGI [18]: > 100 µM
- TGI [19]: 82.1 µM
- TGI [20]: 4.02 µM
- TGI [21]: 5.1 µM
- TGI [22]: 22.1 µM
- TGI [23]: 9.91 µM
- TGI [24]: 4.97 µM
- TGI [25]: 6.65 µM
- TGI [26]: 10.6 µM
- TGI [28]: 18 µM
- TGI [29]: 4.71 µM
- TGI [30]: 47.6 µM
- TGI [58]: 2.36 µM
- TGI [31]: 47.3 µM
- TGI [32]: 14.7 µM
- TGI [33]: 5.51 µM
- TGI [34]: 23.7 µM
- TGI [36]: 12 µM
- TGI [37]: 5.4 µM
- TGI [38]: 5.07 µM
- TGI [39]: 5.88 µM
- TGI [40]: 34.1 µM
- TGI [41]: 10.9 µM
- TGI [42]: 2.54 µM
- TGI [59]: 6.17 µM
- TGI [44]: 28.6 µM
- TGI [45]: 4.81 µM
- TGI [46]: 27.6 µM
- TGI [47]: 27.4 µM
- TGI [48]: > 100 µM
- TGI [49]: 5 µM
- TGI [50]: > 100 µM
- TGI [51]: 39.1 µM
- TGI [52]: 3.95 µM
- TGI [53]: 29.5 µM
- TGI [54]: 3.85 µM
- TGI [55]: 2.55 µM

Structure (SMILES): CCOC(=O)NC(Nc1cc(Cl)ccc1OC)(C(F)(F)F)C(F)(F)F
- TGI [2]: > 100 µM
- TGI [3]: > 100 µM
- TGI [4]: > 100 µM
- TGI [56]: > 100 µM
- TGI [5]: > 100 µM
- TGI [57]: > 100 µM
- TGI [7]: > 100 µM
- TGI [8]: > 100 µM
- TGI [9]: > 100 µM
- TGI [10]: > 100 µM
- TGI [11]: > 100 µM
- TGI [12]: > 100 µM
- TGI [13]: > 100 µM
- TGI [14]: > 100 µM
- TGI [15]: > 100 µM
- TGI [16]: > 100 µM
- TGI [17]: > 100 µM
- TGI [18]: > 100 µM
- TGI [19]: > 100 µM
- TGI [20]: > 100 µM
- TGI [21]: > 100 µM
- TGI [22]: > 100 µM
- TGI [23]: > 100 µM
- TGI [24]: > 100 µM
- TGI [25]: > 100 µM
- TGI [26]: > 100 µM
- TGI [27]: > 100 µM
- TGI [28]: > 100 µM
- TGI [29]: > 100 µM
- TGI [30]: > 100 µM
- TGI [58]: > 100 µM
- TGI [32]: > 100 µM
- TGI [34]: > 100 µM
- TGI [37]: > 100 µM
- TGI [38]: > 100 µM
- TGI [39]: > 100 µM
- TGI [41]: > 100 µM
- TGI [42]: > 100 µM
- TGI [43]: > 100 µM
- TGI [59]: > 100 µM
- TGI [44]: > 100 µM
- TGI [45]: > 100 µM
- TGI [46]: > 100 µM
- TGI [47]: > 100 µM
- TGI [48]: > 100 µM
- TGI [49]: > 100 µM
- TGI [50]: > 100 µM
- TGI [51]: > 100 µM
- TGI [52]: > 100 µM
- TGI [53]: > 100 µM
- TGI [54]: > 100 µM
- TGI [55]: > 100 µM
